Literature values, collected in patent publication US20060264388A1, “Method for treating liver cancer by intrahepatic administration of nemorubicin” (priority 2003, published 2006).
Where a name gives a salt, the structure may show the parent alone.

System: metastatic colorectal cancer
Conditions: after failure of 5-FU leucovorin; cited from earlier work

**Q.** Which results are given for `CCc1c2c(nc3ccc(OC(=O)N4CCC(N5CCCCC5)CC4)cc13)-c1cc3c(c(=O)n1C2)COC(=O)[C@]3(O)CC` [Irinotecan hydrochloride trihydrate]?
**A.** median survival time: approximately 9 months; response rate: 15%
